Results reported in US9079902B2, “Heteroaryl sodium channel inhibitors” (AMGEN INC., priority 2011, dated 2015).
Structures can show the parent of a compound that is named as a salt.

Key:
Nav 1.7 = Nav 1.7 (Homo sapiens (Human), UniProt Q15858); assay: Nav 1.7 in vitro assay (IonWorks Quattro population patch-clamp); assay type: cell-based; details: 293 cells stably transfected with Nav 1.7; for IC50: 26th pulse to -20 mV, 5 Hz; for inhibition at 4.9 µM: HEK293
Method: (§1) Nav 1.7 and Nav 1.5 In Vitro Assay
(§2) 293 cells stably transfected with either Nav 1.7 or with Nav 1.5 were recorded in population patch-clamp mode with the IonWorks® Quattro automated electrophysiology system in accordance with the manufacturer's specifications (Molecular Devices, LLC, Sunnyvale, Calif.). Sodium channel currents were measured in response to a train of depolarizations that induced successively greater inactivation.
(§3) Cells were held at −110 mV for three seconds (Nav 1.7) or half a second (Nav 1.5) from a holding voltage of −15 mV, then put through a series of 26 pulses of 150 msec duration to −20 mV at a frequency of 5 Hz. Cells were then left unclamped for a period of 3 to 8 minutes while a single concentration of test compound was added. Cells were then reclamped and put through the same voltage protocol. Current at the end of the 26th pulse to −20 mV was subtracted from the peak current evoked by the 26th pulse to −20 mV to correct for leak current. Percent block was calculated for each concentration in duplicate, and IC50 curves were fitted to percent block as a function of concentration.

Nav 1.5 = Nav 1.5 (Homo sapiens (Human), UniProt Q14524); assay: Nav 1.5 in vitro assay (IonWorks Quattro population patch-clamp); assay type: cell-based; details: 293 cells stably transfected with Nav 1.5; 26th pulse to -20 mV, 5 Hz
Nav 1.5, sequence (Q14524 whole entry): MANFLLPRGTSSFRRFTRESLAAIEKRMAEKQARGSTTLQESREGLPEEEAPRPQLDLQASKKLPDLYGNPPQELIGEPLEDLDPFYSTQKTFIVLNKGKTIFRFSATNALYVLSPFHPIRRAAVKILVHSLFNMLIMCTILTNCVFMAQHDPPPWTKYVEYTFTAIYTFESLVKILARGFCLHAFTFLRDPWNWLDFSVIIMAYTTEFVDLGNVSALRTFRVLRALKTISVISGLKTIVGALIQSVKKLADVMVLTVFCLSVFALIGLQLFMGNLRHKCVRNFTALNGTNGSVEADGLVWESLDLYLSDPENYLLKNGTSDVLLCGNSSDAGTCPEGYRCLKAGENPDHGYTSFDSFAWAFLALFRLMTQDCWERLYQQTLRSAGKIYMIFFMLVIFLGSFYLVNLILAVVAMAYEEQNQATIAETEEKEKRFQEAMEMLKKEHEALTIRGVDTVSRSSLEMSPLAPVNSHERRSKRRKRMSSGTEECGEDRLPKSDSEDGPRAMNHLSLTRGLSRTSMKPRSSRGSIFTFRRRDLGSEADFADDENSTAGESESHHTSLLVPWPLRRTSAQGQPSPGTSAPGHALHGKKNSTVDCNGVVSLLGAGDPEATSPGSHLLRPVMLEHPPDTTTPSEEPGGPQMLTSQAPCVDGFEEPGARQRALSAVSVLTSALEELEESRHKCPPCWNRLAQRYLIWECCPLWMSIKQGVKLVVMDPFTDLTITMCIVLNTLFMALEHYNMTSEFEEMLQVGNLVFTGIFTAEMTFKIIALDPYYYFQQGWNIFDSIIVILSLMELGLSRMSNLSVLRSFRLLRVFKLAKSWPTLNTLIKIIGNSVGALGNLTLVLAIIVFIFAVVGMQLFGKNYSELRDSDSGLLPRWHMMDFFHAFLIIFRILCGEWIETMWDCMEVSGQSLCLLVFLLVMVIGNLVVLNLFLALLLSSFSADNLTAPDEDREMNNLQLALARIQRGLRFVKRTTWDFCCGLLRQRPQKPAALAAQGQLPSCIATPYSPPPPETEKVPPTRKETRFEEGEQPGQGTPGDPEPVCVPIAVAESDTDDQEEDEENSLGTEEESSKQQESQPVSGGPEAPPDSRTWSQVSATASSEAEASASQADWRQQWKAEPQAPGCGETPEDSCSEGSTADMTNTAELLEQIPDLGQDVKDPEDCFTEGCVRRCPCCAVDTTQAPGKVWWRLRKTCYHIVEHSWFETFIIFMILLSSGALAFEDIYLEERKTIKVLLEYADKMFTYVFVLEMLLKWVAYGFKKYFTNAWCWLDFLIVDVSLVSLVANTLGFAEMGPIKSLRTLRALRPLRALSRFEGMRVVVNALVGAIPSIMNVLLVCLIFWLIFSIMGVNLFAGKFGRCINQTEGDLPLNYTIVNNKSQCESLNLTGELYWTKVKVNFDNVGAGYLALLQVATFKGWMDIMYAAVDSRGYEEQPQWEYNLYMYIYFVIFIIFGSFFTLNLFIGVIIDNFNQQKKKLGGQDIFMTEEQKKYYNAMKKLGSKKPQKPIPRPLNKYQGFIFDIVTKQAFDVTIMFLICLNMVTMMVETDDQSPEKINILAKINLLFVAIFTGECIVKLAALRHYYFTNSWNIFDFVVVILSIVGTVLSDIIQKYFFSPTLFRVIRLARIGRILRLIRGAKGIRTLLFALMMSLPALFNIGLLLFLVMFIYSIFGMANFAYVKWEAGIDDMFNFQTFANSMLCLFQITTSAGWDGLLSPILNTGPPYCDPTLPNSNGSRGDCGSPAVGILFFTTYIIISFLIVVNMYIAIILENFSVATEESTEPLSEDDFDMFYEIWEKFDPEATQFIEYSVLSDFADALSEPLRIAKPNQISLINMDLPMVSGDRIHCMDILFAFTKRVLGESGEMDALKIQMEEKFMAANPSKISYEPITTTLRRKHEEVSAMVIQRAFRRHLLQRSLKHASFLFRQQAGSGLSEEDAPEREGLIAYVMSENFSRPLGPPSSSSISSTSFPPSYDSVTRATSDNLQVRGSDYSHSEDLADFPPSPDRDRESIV
Method: as §1, §2, §3

Nav 1.7, sequence (Q15858 whole entry): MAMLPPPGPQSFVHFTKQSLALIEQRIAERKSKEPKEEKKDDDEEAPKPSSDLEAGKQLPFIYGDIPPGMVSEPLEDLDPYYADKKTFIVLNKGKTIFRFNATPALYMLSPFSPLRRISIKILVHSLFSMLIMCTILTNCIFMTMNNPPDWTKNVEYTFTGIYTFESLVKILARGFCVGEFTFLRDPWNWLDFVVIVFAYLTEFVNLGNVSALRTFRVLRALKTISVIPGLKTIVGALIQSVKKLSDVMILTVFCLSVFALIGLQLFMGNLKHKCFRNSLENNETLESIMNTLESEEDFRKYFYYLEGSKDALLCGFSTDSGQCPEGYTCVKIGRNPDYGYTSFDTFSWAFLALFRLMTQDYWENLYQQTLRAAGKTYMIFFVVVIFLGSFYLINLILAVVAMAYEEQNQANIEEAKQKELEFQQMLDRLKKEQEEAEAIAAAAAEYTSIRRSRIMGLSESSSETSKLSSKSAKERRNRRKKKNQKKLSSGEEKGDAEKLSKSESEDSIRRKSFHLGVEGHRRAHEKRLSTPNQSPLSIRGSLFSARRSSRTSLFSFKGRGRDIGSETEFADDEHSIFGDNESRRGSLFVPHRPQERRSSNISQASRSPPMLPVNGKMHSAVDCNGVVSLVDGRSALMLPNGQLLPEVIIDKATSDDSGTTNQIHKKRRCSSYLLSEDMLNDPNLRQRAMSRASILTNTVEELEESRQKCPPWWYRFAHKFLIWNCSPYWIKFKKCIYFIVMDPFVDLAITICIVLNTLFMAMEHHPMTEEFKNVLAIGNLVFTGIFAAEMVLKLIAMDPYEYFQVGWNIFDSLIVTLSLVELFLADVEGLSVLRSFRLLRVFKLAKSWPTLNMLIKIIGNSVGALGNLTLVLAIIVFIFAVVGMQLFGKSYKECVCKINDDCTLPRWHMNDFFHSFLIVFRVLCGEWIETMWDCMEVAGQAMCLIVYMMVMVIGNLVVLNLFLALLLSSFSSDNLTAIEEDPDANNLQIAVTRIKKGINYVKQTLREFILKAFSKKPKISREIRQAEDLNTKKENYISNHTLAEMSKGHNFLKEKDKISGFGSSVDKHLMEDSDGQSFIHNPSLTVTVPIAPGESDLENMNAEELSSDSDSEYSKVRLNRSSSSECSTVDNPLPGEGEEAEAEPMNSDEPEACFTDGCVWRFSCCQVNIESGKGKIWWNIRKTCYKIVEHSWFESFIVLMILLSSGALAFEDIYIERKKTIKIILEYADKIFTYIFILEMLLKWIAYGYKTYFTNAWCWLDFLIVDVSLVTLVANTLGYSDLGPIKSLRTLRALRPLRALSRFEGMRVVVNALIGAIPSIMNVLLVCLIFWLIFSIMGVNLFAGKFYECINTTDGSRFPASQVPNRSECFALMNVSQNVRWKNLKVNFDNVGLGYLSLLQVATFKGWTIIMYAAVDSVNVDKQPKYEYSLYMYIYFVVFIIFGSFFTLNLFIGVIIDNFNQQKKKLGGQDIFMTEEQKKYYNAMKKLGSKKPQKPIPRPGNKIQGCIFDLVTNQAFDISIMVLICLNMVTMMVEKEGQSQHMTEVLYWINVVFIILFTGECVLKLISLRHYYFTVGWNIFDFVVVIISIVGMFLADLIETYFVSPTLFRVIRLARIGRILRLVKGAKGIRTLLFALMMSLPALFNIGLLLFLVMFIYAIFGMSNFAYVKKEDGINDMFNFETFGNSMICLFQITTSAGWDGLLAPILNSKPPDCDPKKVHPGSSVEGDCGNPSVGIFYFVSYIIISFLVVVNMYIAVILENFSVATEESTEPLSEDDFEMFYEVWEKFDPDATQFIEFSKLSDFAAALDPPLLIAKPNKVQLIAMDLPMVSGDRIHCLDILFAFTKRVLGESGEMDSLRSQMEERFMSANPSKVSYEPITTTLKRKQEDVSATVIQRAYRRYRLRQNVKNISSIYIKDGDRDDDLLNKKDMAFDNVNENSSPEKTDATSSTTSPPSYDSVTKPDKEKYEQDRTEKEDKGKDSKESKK

Compound	IC50 (Nav 1.7) [µM]	inhibition at 4.9 µM (Nav 1.7) [%]	IC50 (Nav 1.5) [µM]
CC(C)n1cc(-c2ccc(C(F)(F)F)cc2-c2ccnn2C)c2ccc(S(=O)(=O)Nc3ncns3)cc21 [Example 3, 1-Isopropyl-3-(2-(1-Methyl-1H-Pyrazol-5-yl)-4-(Trifluoromethyl)Phenyl)-N-(1,2,4-Thiadiazol-5-yl)-1H-Indole-6-Sulfonamide]	1.93	–	> 10
Cn1cc(-c2cccc3c2CNCC3)c2ccc(S(=O)(=O)Nc3ncns3)cc21 [Example 54, 1-Methyl-3-(1,2,3,4-Tetrahydroisoquinolin-8-Yl)-N-(1,2,4-Thiadiazol-5-Yl)-1H-Indole-6-Sulfonamide Hydrochloride]	1.63	–	> 10
Cn1cc(-c2cccnc2)c2ccc(S(=O)(=O)Nc3ncns3)cc21 [Example 9, 1-Methyl-3-(Pyridin-3-yl)-N-(1,2,4-Thiadiazol-5-yl)-1H-Indole-6-Sulfonamide]	1.7	–	> 10
Cn1cc(-c2cc(Br)cc(C(F)(F)F)c2)c2ccc(S(=O)(=O)Nc3ncns3)cc21 [Example 17, 3-(3-Bromo-5-(Trifluoromethyl)Phenyl)-1-Methyl-N-(1,2,4-Thiadiazol-5-yl)-1H-Indole-6-Sulfonamide]	9.11	–	> 10
COC(=O)n1cc(-c2ccc(C(F)(F)F)cc2-c2ccnn2C)c2ccc(S(=O)(=O)Nc3ncns3)cc21 [Example 6, Methyl 6-(N-(1,2,4-Thiadiazol-5-yl)Sulfamoyl)-3-(2-(1-Methyl-1H-Pyrazol-5-yl)-4-(Trifluoromethyl)Phenyl)-1H-Indole-1-Carboxylate]	0.356	–	> 10
Cn1nccc1-c1cc(C(F)(F)F)ccc1-c1cn(C)c2cc(S(=O)(=O)Nc3ncns3)ccc12 [Example 8, 1-Methyl-3-(2-(1-Methyl-1H-Pyrazol-5-yl)-4-(Trifluoromethyl)Phenyl)-N-(1,2,4-Thiadiazol-5-yl)-1H-Indole-6-Sulfonamide]	0.147	–	> 10
Cn1cc(-c2ccc(C(F)(F)F)cc2C#N)c2ccc(S(=O)(=O)Nc3ncns3)cc21 [Example 16, 3-(2-Cyano-4-(Trifluoromethyl)Phenyl)-1-Methyl-N-(1,2,4-Thiadiazol-5-yl)-1H-Indole-6-Sulfonamide]	0.551	–	> 10
Cn1cc(-c2cc(-c3ccncc3)cc(C(F)(F)F)c2)c2ccc(S(=O)(=O)Nc3ncns3)cc21 [Example 15, 1-Methyl-3-(3-(Pyridin-4-yl)-5-(Trifluoromethyl)Phenyl)-N-(1,2,4-Thiadiazol-5-yl)-1H-Indole-6-Sulfonamide]	1.54	–	> 10
Cn1nccc1-c1cc(Cl)ccc1-c1c[nH]c2cc(S(=O)(=O)Nc3ncns3)ccc12 [Example 1, 3-(4-Chloro-2-(1-Methyl-1H-Pyrazol-5-yl)Phenyl)-N-(1,2,4-Thiadiazol-5-yl)-1H-Indole-6-Sulfonamide]	0.445	–	> 10
Cn1nccc1-c1cc(Cl)ccc1-c1cn(C)c2cc(S(=O)(=O)Nc3ncns3)ccc12 [Example 2, 3-(4-Chloro-2-(1-Methyl-1H-Pyrazol-5-yl)Phenyl)-1-Methyl-N-(1,2,4-Thiadiazol-5-yl)-1H-Indole-6-Sulfonamide]	0.253	–	> 10
CC#Cc1cncc(-c2cn(C)c3cc(S(=O)(=O)Nc4ncns4)ccc23)c1 [Example 14, 1-Methyl-3-(5-(Prop-1-Yn-1-yl)Pyridin-3-yl)-N-(1,2,4-Thiadiazol-5-yl)-1H-Indole-6-Sulfonamide]	3.29	–	> 10
Cn1nccc1-c1cc(C(F)(F)F)ccc1-c1cn(C)c2cc(S(=O)(=O)Nc3ccncn3)ccc12 [Example 12, 1-Methyl-3-(2-(1-Methyl-1H-Pyrazol-5-yl)-4-(Trifluoromethyl)Phenyl)-N-(Pyrimidin-4-yl)-1H-Indole-6-Sulfonamide]	0.835	–	> 10

Further lines, with some results ahead:

IC50 (Nav 1.7) [µM]	inhibition at 4.9 µM (Nav 1.7) [%]	Compound	IC50 (Nav 1.5) [µM]
0.263	–	Cn1cc(-c2ccc(C(F)(F)F)cc2-c2ccn(C3CNC3)n2)c2ccc(S(=O)(=O)Nc3ncns3)cc21 [Example 19, 3-(2-(1-(Azetidin-3-yl)-1H-Pyrazol-3-yl)-4-(Trifluoromethyl)Phenyl)-1-Methyl-N-(1,2,4-Thiadiazol-5-yl)-1H-Indole-6-Sulfonamide Hydrochloride]	> 10
–	37.2	COc1ccc(-c2cn(C)c3cc(S(=O)(=O)Nc4ncns4)ccc23)cn1 [Example 61, 3-(6-Methoxypyridin-3-Yl)-1-Methyl-N-(1,2,4-Thiadiazol-5-Yl)-1H-Indole-6-Sulfonamide]	> 10
–	36.2	Cc1sc(NS(=O)(=O)c2ccc3c(-c4ccc(C(F)(F)F)cc4-c4ccnn4C)cn(C)c3c2)nc1C(F)(F)F [Example 20, 1-Methyl-3-(2-(1-Methyl-1H-Pyrazol-5-yl)-4-(Trifluoromethyl)Phenyl)-N-(5-Methyl-4-(Trifluoromethyl)Thiazol-2-yl)-1H-Indole-6-Sulfonamide]	> 10
0.0375	–	Cn1cc(-c2ccc(C(F)(F)F)cc2-c2cn[nH]c2)c2ccc(S(=O)(=O)Nc3ncns3)cc21 [Example 21, 3-(2-(1H-Pyrazol-4-yl)-4-(Trifluoromethyl)Phenyl)-1-Methyl-N-(1,2,4-Thiadiazol-5-yl)-1H-Indole-6-Sulfonamide]	> 10
–	23.3	Cn1cc(-c2ccc(C(F)(F)F)cc2)c2ccc(S(=O)(=O)Nc3ncns3)cc21 [Example 57, 1-Methyl-N-(1,2,4-Thiadiazol-5-Yl)-3-(4-(Trifluoromethyl)Phenyl)-1H-Indole-6-Sulfonamide]	> 10
0.269	–	Cn1cc(-c2ccc(C(F)(F)F)cc2C2=CCNCC2)c2ccc(S(=O)(=O)Nc3nccs3)cc21 [Example 65, 1-Methyl-3-(2-(1,2,3,6-Tetrahydropyridin-4-Yl)-4-(Trifluoromethyl)Phenyl)-N-(Thiazol-2-Yl)-1H-Indole-6-Sulfonamide 2,2,2-Trifluoroacetate]	> 10
–	20.8	COc1cc(-c2cn(C)c3cc(S(=O)(=O)Nc4ncns4)ccc23)c(F)cn1 [Example 56, 3-(5-Fluoro-2-Methoxypyridin-4-Yl)-1-Methyl-N-(1,2,4-Thiadiazol-5-Yl)-1H-Indole-6-Sulfonamide]	> 10
8.53	–	Cn1cc(-c2ccncc2Cl)c2ccc(S(=O)(=O)Nc3ncns3)cc21 [Example 51, 3-(3-Chloropyridin-4-Yl)-1-Methyl-N-(1,2,4-Thiadiazol-5-Yl)-1H-Indole-6-Sulfonamide]	> 10
–	25.1	Cn1cc(-c2ccccc2OC(F)(F)F)c2ccc(S(=O)(=O)Nc3ncns3)cc21 [Example 58, 1-Methyl-N-(1,2,4-Thiadiazol-5-Yl)-3-(2-(Trifluoromethoxy)Phenyl)-1H-Indole-6-Sulfonamide]	> 10
1.13	–	Cn1nccc1-c1cc(C(F)(F)F)ccc1-n1cnc2cc(S(=O)(=O)Nc3ncns3)ccc21 [Example 63, 1-(2-(1-Methyl-1H-Pyrazol-5-Yl)-4-(Trifluoromethyl)Phenyl)-N-(1,2,4-Thiadiazol-5-Yl)-1H-Benzo[D]Imidazole-5-Sulfonamide]	> 10
1.38	–	Cn1nccc1-c1cc(C(F)(F)F)ccc1-c1cn(C)c2cc(S(=O)(=O)Nc3nc(Br)ns3)ccc12 [Example 50, N-(3-Bromo-1,2,4-Thiadiazol-5-Yl)-1-Methyl-3-(2-(1-Methyl-1H-Pyrazol-5-Yl)-4-(Trifluoromethyl)Phenyl)-1H-Indole-6-Sulfonamide]	> 10
–	24.7	COc1ccc(-c2cn(C)c3cc(S(=O)(=O)Nc4ncns4)ccc23)cc1C#N [Example 60, 3-(3-Cyano-4-Methoxyphenyl)-1-Methyl-N-(1,2,4-Thiadiazol-5-Yl)-1H-Indole-6-Sulfonamide]	> 10
6.7	–	Cn1nccc1-c1cc(C(F)(F)F)ccc1-c1c[nH]c2nc(S(=O)(=O)Nc3ncns3)ccc12 [Example 25, 3-(2-(1-Methyl-1H-Pyrazol-5-yl)-4-(Trifluoromethyl)Phenyl)-N-(1,2,4-Thiadiazol-5-yl)-1H-Pyrrolo[2,3-B]Pyridine-6-Sulfonamide]	8.55
0.05	–	Cn1cc(-c2ccc(C(F)(F)F)cc2-c2ccncc2)c2ccc(S(=O)(=O)Nc3ncns3)cc21 [Example 18, 1-Methyl-3-(2-(Pyridin-4-yl)-4-(Trifluoromethyl)Phenyl)-N-(1,2,4-Thiadiazol-5-yl)-1H-Indole-6-Sulfonamide]	> 10
0.292	–	Cn1cc(-c2cccc3c2CCNC3)c2ccc(S(=O)(=O)Nc3ncns3)cc21 [Example 53, 1-Methyl-3-(1,2,3,4-Tetrahydroisoquinolin-5-Yl)-N-(1,2,4-Thiadiazol-5-Yl)-1H-Indole-6-Sulfonamide Hydrochloride]	> 10
0.687	–	Cn1cc(-c2ccc(C(F)(F)F)cc2Cl)c2ccc(S(=O)(=O)Nc3ncns3)cc21 [Example 23, 3-(2-Chloro-4-(Trifluoromethyl)Phenyl)-1-Methyl-N-(1,2,4-Thiadiazol-5-yl)-1H-Indole-6-Sulfonamide]	> 10
